Where two headings read alike, the source gives them in different places.
Legend:
[1] = BIA 28-6156-106: safety and tolerability; type: in vivo, human
Procedure: (§1) This was a Phase 1, single-dose, mass balance recovery study of ^14C-Compound A in 1 cohort of healthy male subjects, aged 30 to 65 years. A total of 6 subjects received a single oral dose of 60 mg Compound A, containing not more than 3.7 MBq ^14C, under fasted conditions. Objectives included determining the routes and rates of elimination of ^14C-Compound A, identifying the structure of metabolites that account for more than 10% of circulating total radioactivity in plasma and total radioactive dose in urine and feces, exploring the PK of Compound A, evaluating the extent of distribution of TR into blood cells, and gathering additional safety and tolerability information for Compound A.

[2] = LTI-291-001 single ascending dose study: plasma pharmacokinetics and food effect; type: in vivo, human; details: for Vd/F: read-out: Vz/F
Procedure: This study was a first-in-human Phase 1, randomized, double-blind, placebo-controlled, single-ascending dose study to evaluate the safety and tolerability, PK, and PD of escalating single oral doses of Compound A (3, 10, 30, and 90 mg) in 4 cohorts of healthy subjects. A total of 32 subjects received a single oral dose of Compound A (8 per dose group) and 8 subjects received placebo. The effect of food on the PK of Compound A was evaluated by administering a second single oral dose of 10 mg Compound A to the subjects in Cohort 2 on a separate occasion, after subjects had completed a high-fat breakfast. Blood samples for Compound A PK were collected up to 48 hours after each dose.

[3] = BIA 28-6156-110 DDI, metformin portion; type: in vivo, human; details: after 6 days of dosing with 60 mg, metformin portion
Procedure: In Cohort 2, a single oral dose 500 mg metformin was administered alone on Day 1. From Day 2 to Day 7, a single daily dose of 60 mg Compound A was administered.

[4] = BIA 28-6156-106 mass balance recovery, metabolite profiling and PK of 14C-Compound A; type: in vivo, human
Procedure: as §1

clinical = details: both, human, plasma, 60 mg; for AUC(0-t): Madopar portion, geometric mean
Procedure: This was a Phase 1, non-randomized, open-label, 2-cohort, cross-over, DDI study in healthy male and female subjects.
In Cohort 2, a single oral dose 100 mg/25 mg levodopa-benserazide (Madopar®) IR was administered alone on Day 1.

[5] = LTI-291-003: NeuroCart, MMSE, MDS-UPDRS, EEG; type: in vivo, human; details: 10, 30, 60 mg daily for 28 days, GBA-PD
Procedure: GluCer, GluSph, and LacCer were measured in plasma, PBMCs, and CSF as biomarkers of pharmacological effects. The pharmacodynamic evaluations also consisted of a battery of NeuroCart assessments (Saccadic Eye Movements, Smooth Pursuit Eye Movements, Adaptive Tracking, Body Sway, and Visual Verbal Learning Test); functional outcome measures (MDS-UPDRS Part III, and the MMSE); and pharmaco-EEG.

[6] = system: GluCer, GluSph and LacCer in PBMCs and plasma; assay: LTI-291-004: glycolipid biomarkers; type: in vivo, human
Procedure: This study was a Phase 1B, randomized, double-blind, placebo-controlled, multiple oral dose study of Compound A in 14 subjects (aged 51 to 81 years) with GBA-PD. The objectives of this study were to investigate the safety, tolerability, and PK of multiple once-daily oral administration of Compound A and to explore the accompanying pharmacodynamic changes. Subjects received once-daily oral doses of 10 mg (n=6) or 60 mg (2×30 mg capsules) (n=6) Compound A or placebo (n=2) for 28 consecutive days. PK samples were measured once on Day 7 and Day 14 and 4 times after the last dose on Day 28. Plasma concentrations were summarized at each time point, and no PK parameters were estimated. The PD evaluations included fMRI measures; FDG-PET to determine the metabolic rate of glucose in specific regions of the brain; and functional outcome measures (MDS-UPDRS Part III and the MMSE). GluCer, GluSph, and LacCer and other sphingolipids were measured in PBMCs and plasma as biomarkers of pharmacological effect.

[7] = BIA 28-6156-110 DDI, rosuvastatin portion; type: in vivo, human; details: after 6 days of dosing with 60 mg, rosuvastatin portion
Procedure: In Cohort 1, a single oral dose of 10 mg rosuvastatin was administered alone on Day 1. No drug was administered on Day 2. From Day 3 to Day 8, a single daily dose of 60 mg Compound A was administered.

[8] = 3 mg fasted, single oral dose, geometric mean
[9] = 10 mg fasted, single oral dose, geometric mean
[10] = 10 mg fed, single oral dose, geometric mean
[11] = 10 mg, high-fat breakfast vs fasted
[12] = 30 mg fasted, single oral dose, geometric mean
[13] = 90 mg fasted, single oral dose, geometric mean
[14] = human, plasma, po, 3 mg, 3 mg fasted, single oral dose, geometric mean
[15] = human, plasma, po, 10 mg, 10 mg fasted, single oral dose, geometric mean
[16] = human, plasma, po, 10 mg, 10 mg fed, single oral dose, geometric mean
[17] = human, plasma, po, 30 mg, 30 mg fasted, single oral dose, geometric mean
[18] = human, plasma, po, 90 mg, 90 mg fasted, single oral dose, geometric mean

With `CCCCCO[C@H]1CC[C@H](NC(=O)c2cnn3c(C)cc(C)nc23)CC1` [Compound A, 5,7-dimethyl-N-((1S*,4S)-4-(pentyloxy)cyclohexyl)pyrazolo[1,5-a]pyrimidine-3-carboxamide] the “vital signs, laboratory safety assessments, ECG parameters” value ([1]; in vivo) was “no clinically significant safety observations”, the “relatedness of AEs” value ([1]; investigator assessment) was “unrelated to the IMP” and the “deaths, SAEs, severe AEs, discontinuations due to AEs” value ([1]; single 60 mg dose) was “No deaths, other SAEs, severe AEs, or discontinuations due to AEs”. For the same compound, the “subjects reporting mild headaches” value ([1]; single 60 mg dose) was 33.3%, the “subjects reporting moderate tinea cruris” value ([1]; single 60 mg dose) was 16.7% and the “subjects reporting AEs” value ([1]; single 60 mg dose, 6 subjects) was 50.0%. The AUC0-inf/dose [2, 8] was 754 ng·h/mL/mg, the Cmax/dose [2, 8] was 36.4 ng/mL/mg and the AUC0-inf/dose [2, 9] was 756 ng·h/mL/mg. For the same compound, the Cmax/dose [2, 9] was 32.8 ng/mL/mg, the Tmax ([2]; 10 mg fasted, single oral dose, median) was 1.01 h and the AUC0-inf/dose [2, 10] was 853 ng·h/mL/mg. For the same compound, the Cmax/dose [2, 10] was 23.4 ng/mL/mg, the “ratio of geometric means fed to fasting, AUC0-inf” value [2, 11] was 111% and the “ratio of geometric means fed to fasting, AUC0-last” value [2, 11] was 103%. For the same compound, the “ratio of geometric means fed to fasting, Cmax” value [2, 11] was 71.3%, the AUC0-inf/dose [2, 12] was 821 ng·h/mL/mg and the Cmax/dose [2, 12] was 32.0 ng/mL/mg. For the same compound, the AUC0-inf/dose [2, 13] was 704 ng·h/mL/mg, the Cmax/dose [2, 13] was 29.4 ng/mL/mg and the “total exposure (Cmax and AUC0-inf) versus dose” value ([2]; entire dose range 3-90 mg) was “increase in a dose proportional manner”. The half-life ([2]; human, plasma, oral, across fasted and fed groups, read-out: Geometric mean t1/2) was 21.2 to 23.4 h, the Tmax ([2]; human, plasma, oral, single dose 3-90 mg, fasted, medians across dose groups, read-out: median Tmax) was 1 to 3 h and the Tmax ([2]; human, plasma, oral, single dose 3-90 mg, fasted, minimum to maximum, read-out: Tmax, range) was 1 to 8.2 h. For the same compound, the AUC(0-inf) [2, 14] was 2260 ng·h/mL, the AUC(0-t) [2, 14] was 1560 ng·h/mL and the Cmax [2, 14] was 109 ng/mL. It also gave a Vd/F [2, 14] of 40.5 L, a half-life ([2]; human, plasma, po, 3 mg, 3 mg fasted, single oral dose, geometric mean, read-out: t1/2 (converted)) of 21.2 h and a Tmax ([2]; human, plasma, po, 3 mg, 3 mg fasted, single oral dose, median, read-out: Tmax) of 1.48 h. It also gave an AUC(0-inf) [2, 15] of 7560 ng·h/mL, an AUC(0-t) [2, 15] of 5690 ng·h/mL and a Cmax [2, 15] of 328 ng/mL. It also gave a Vd/F [2, 15] of 42.4 L, a half-life ([2]; human, plasma, po, 10 mg, 10 mg fasted, single oral dose, geometric mean, read-out: t1/2 (converted)) of 22.2 h and a Tmax ([2]; human, plasma, po, 10 mg, 10 mg fasted, single oral dose, median, read-out: Tmax) of 1 h. For the same compound, the AUC(0-inf) [2, 16] was 8530 ng·h/mL, the AUC(0-t) [2, 16] was 5860 ng·h/mL and the Cmax [2, 16] was 234 ng/mL. For the same compound, the Vd/F [2, 16] was 39.6 L, the half-life ([2]; human, plasma, po, 10 mg, 10 mg fed, single oral dose, geometric mean, read-out: t1/2 (converted)) was 23.4 h and the Tmax ([2]; human, plasma, po, 10 mg, 10 mg fed, single oral dose, median, read-out: Tmax) was 8 h. The AUC(0-inf) [2, 17] was 24600 ng·h/mL, the AUC(0-t) [2, 17] was 18400 ng·h/mL and the Cmax [2, 17] was 961 ng/mL. The Vd/F [2, 17] was 40.8 L, the half-life ([2]; human, plasma, po, 30 mg, 30 mg fasted, single oral dose, geometric mean, read-out: t1/2 (converted)) was 23.2 h and the Tmax ([2]; human, plasma, po, 30 mg, 30 mg fasted, single oral dose, median, read-out: Tmax) was 3.02 h. It also gave an AUC(0-inf) [2, 18] of 63400 ng·h/mL, an AUC(0-t) [2, 18] of 47800 ng·h/mL and a Cmax [2, 18] of 2640 ng/mL. It also gave a Vd/F [2, 18] of 47.7 L, a half-life ([2]; human, plasma, po, 90 mg, 90 mg fasted, single oral dose, geometric mean, read-out: t1/2 (converted)) of 23.3 h and a Tmax ([2]; human, plasma, po, 90 mg, 90 mg fasted, single oral dose, median, read-out: Tmax) of 2 h. For the same compound, the “steady state concentrations of Compound A” value [3] was “appeared not to have been reached”, the “radioactivity recovered in excreta, mean” value ([4]; 60 mg 14C-Compound A oral, fasted, 288-hour sampling period) was “approximately 93%” and the “exposure to Compound A as share of circulating plasma total recovery” value ([4]; based on AUC0-inf) was “approximately 92%”. It also gave a Tmax ([4]; male, human, plasma, single oral dose of 60 mg 14C BIA-28, read-out: Median Tmax) of 1.5 h, an AUC(0-inf) ([4]; male, human, plasma, single oral dose of 60 mg 14C BIA-28, read-out: plasma AUC0-inf, geometric mean) of 42100 ng·h/mL and an AUC(0-t) ([4]; male, human, plasma, single oral dose of 60 mg 14C BIA-28, read-out: plasma AUC0-last, geometric mean) of 41700 ng·h/mL. It also gave a Cmax ([4]; male, human, plasma, single oral dose of 60 mg 14C BIA-28, read-out: plasma Cmax, geometric mean) of 1750 ng/mL, a half-life ([4]; male, human, plasma, single oral dose of 60 mg 14C BIA-28, read-out: plasma half-life, geometric mean (converted)) of 21.5 h and a Cmax (clinical) of 2030 ng/mL. The Tmax (clinical) was 2 h, the AUC(0-t) (clinical; AUC0-24, 60 mg Compound A alone) was 24000 ng·h/mL and the AUC(0-t) (clinical; AUC0-t, 60 mg Compound A alone) was 22800 ng·h/mL. The “effects on NeuroCart tests, MMSE, MDS-UPDRS, EEG” value [5] was “no dose-dependent effects”, the PBMC glycolipid levels ([6]; 10 or 60 mg daily for 28 days, GBA-PD) was “Significant changes” and the “Plasma LacCer” value ([6]; upon Compound A treatment) was “tended to decrease”. For the same compound, the “plasma GluCer or GluSph” value ([6]; upon Compound A treatment) was “no effect was observed” and the “steady state concentrations of Compound A” value [7] was “appeared not to have been reached”.

Reference: patent publication US20260240851A1, “Treatment of Parkinson's Disease in a Patient Using a Glucocerebrosidase Activator” (BIAL - R&D Investments, S.A., priority 2023, published 2026)
